Source: patent US9914750B2, “Synthetic peptides and peptide mimetics” (University of Louisville Research Foundation, priority 2007, dated 2018)
“Also recorded” adds a separate entry of the source. No end group written: not given here.

What was measured:
sheep red blood cells = experiment: Hemagglutination assay; type: cell-based; settings: PBS, absence of serum, 2 h
Protocol: FIG. 22: Hemagglutination of sheep red blood cells. RBCs were washed in PBS and incubated for 2 h in microtiter plates in PBS±5% fetal calf serum. Peptide concentrations were 83 μg/ml. The microtiter plate was imaged. Agglutinated red blood cells form a wide mat of cells, while non-agglutinated cells form a button shaped pellet.
Briefly, unmodified sheep erythrocytes (Cappel, M P Biomedicals, Irvine, Calif.) were washed in PBS and suspended at 1% in PBS. Diluted erythrocytes and 20 μg/ml of each peptide in PBS were mixed in polypropylene microtiter plates (120 μl per well) and incubated for 2 h at 35° C. The plates were imaged on a Kodak Image station.

[1] = tested on: Aggregatibacter (Actinobacillus) actinomycetemcomitans JP2; type: cell-based; settings: 10 or 100 μg/ml
Protocol: The PSP peptides GL13, GK7 and KL11, lysozyme, LL37 or no peptide (BLK) were incubated with P. aeruginosa (FIG. 3A) or A. actinomycetemcomitans (FIG. 3B). P. aeruginosa PAO1 (10^5 cells/ml) were incubated for 2 h at 35° C. with 10 μg/ml (open bars) or 100 μg/ml (shaded bars) of each peptide. A. actinomycetemcomitans JP2 (10^5 cells/nil) were incubated for 4 h at 37° C. under reduced oxygen conditions. Bacterial cultures were diluted and plated on LB agar (Pseudomonas) or BHI agar plates (A.a., low oxygen incubation) and surviving CFUs enumerated. The data are shown as mean±SEM, P. aeruginosa: N=8−22 at 100 μg/ml, N=2−10 at 10 μg/ml. A. actinomycetemcomitans: N=3. *) P<0.0001, **) P<0.004, ***) P<0.02
Overnight cultures of bacteria were pelleted and resuspended in 10 mM sodium phosphate, pH 7.4 (10^5 CFU/ml). Diluted bacteria (100 μl) were incubated with 10 or 100 μg/ml of each peptide in 10 mM sodium phosphate, pH 7.4. P aeruginosa PAO1 were incubated for 2 h at 35° C. while A. actinomycetemcomitans JP2 were incubated for 4 h at 37° C. under reduced oxygen conditions. […]
As a second antibacterial assay, bactericidal activity was determined by incubating the peptides (10 or 100 μg/ml) with P. aeruginosa, A. actinomycetemcomitans or S. gordonii in 10 mM phosphate buffer. […]

[2] = tested on: LPS-binding protein (LBP); experiment: Inhibition of LPS binding to LPS-binding protein (ELISA); settings: for Inhibition (Mean ± SEM) of LPS binding to LBP: relative to polymyxin B (100% inhibition), LPS preincubated with peptide
Protocol: Analysis of the PSP sequence indicated three possible regions of biological activity. Initially, three peptides corresponding to the PSP sequence in these regions were designed and used in these studies. The initial step in the inflammatory cascade is the binding of LPS to LPS-binding protein. This binding was inhibited by preincubation of LPS with each of the three peptides. […] The binding of LPS to LPB was analyzed to ELISA. 0% inhibition (100% binding) was determined in the absence of inhibitors while 100% inhibition was determined in the presence of the inhibitor polymyxin B. The inhibition of each peptide is determined relative to the effect of polymyxin B.

P. aeruginosa PAO1 [3] = experiment: Biofilm formation / bacterial adhesion assay, PVC microtiter plates, crystal violet; type: cell-based, Pseudomonas aeruginosa; settings: 50 μg/ml, 6 h, aerobic
Protocol: FIGS. 7A and 7B: PSP-peptides inhibit biofilm formation. P. aeruginosa PAO1 (overnight cultures, diluted 1:100 were incubated with 50 μg/ml of each peptide (LL37, GK7, GL13, KL11) or lysozyme for 6 h under aerobic (FIG. 7A) or reduced oxygen (anaerobic) (FIG. 7B) conditions. The OD 570 (growth) was determined and the attached cells were then quantitated by staining with crystal violet (biofilm). Growth and biofilm values were normalized against the mean of samples without peptides (HOAc) and expressed as mean±SEM. The data in panel A are from three independent experiments, N=22−24. The data in panel B are from two independent experiments, N=16. Lysozyme (Lyz) data are from a single experiment, N=8. *) different from Growth, P<0.002
(§1) Overnight cultures of P. aeruginosa PAO1 were diluted 1:100 in MHB and 100 μl/well were incubated with 5 μl of LL-37, GK-7, GL-13, KL-11 or lysozyme (1 mg/ml) in PVC microtiter plates. The plates were incubated for 6 h at 32° C. under aerobic or reduced oxygen conditions. Bacterial growth was quantitated spectrophotometrically at 570 nm. Twenty-five μl of 1% crystal violet in dH2O was added to each well and incubated 20 min at room temperature. The wells were emptied and washed three times in dH2O and then incubated for 30 min with 200 μl of 95% ethanol. The OD at 570 nm was determined as a measure of biofilm formation. Growth and biofilm values were normalized against the mean of samples incubated with 0.01% acetic acid without peptides.
as §1, with “μl of the bacterial suspension was mixed” for “μl/well were incubated”, “50 μg/ml” for “5 μl”, “lysozyme” for “lysozyme (1 mg/ml)”

[4] = tested on: A. actinomycetemcomitans JP2; experiment: MIC determination, broth dilution assay (growth OD 570 nm, pelleting in wells); type: cell-based, Aggregatibacter (Actinobacillus) actinomycetemcomitans
Protocol: (§2) FIGS. 5A and 5B: PSP peptides lack bacteriostatic activity. P. aeruginosa PAO1 or A. actinomycetemcomitans JP2 (10^5 cells/ml) were incubated overnight with two-fold serial dilutions of the indicated peptides. The OD was determined at 570 nm. The data for P. aeruginosa (FIG. 5A) are representative of six independent experiments. The data for A. actinomycetemcomitans (FIG. 5B) are representative of three independent experiments. Filled squares, lysozyme; open diamonds, no peptide; open triangles, KL-11; filled triangles, GK-7; open squares, GL-13; filled diamonds, LL-37. […] Lysozyme inhibits growth about 50%. None of the PSP peptides inhibit growth.
The minimal inhibitory concentration (MIC) of PSP peptides was tested using the broth dilution assay. Briefly, overnight cultures of bacteria were diluted in Mueller-Hinton broth (MHB) (Difco) to 10^5 CFU/ml. Diluted bacteria (100 μl) and two-fold serial dilutions of peptides in 10 mM sodium phosphate, pH 7.4 (20 μl) were mixed in polypropylene microtiter plates and incubated for 24 h at 35° C. for P. aeruginosa or 48 h at 37° C. under reduced oxygen conditions for A. actinomycetemcomitans. Control samples were incubated with bacteria and two-fold serial dilutions of 20 μl 0.01% acetic acid in 10 mM sodium phosphate. Bacterial growth was quantitated by the optical density (OD) at 570 nm. […]

P. aeruginosa = experiment: Antibacterial activity in vivo, Romaine lettuce infection model; parameters: species or system Pseudomonas aeruginosa; settings: 200 μg/ml peptide injected with bacteria, scored after 2-3 days
Protocol: FIG. 4: Antibacterial activity in vivo. Romaine lettuce leaves were injected with P. aeruginosa (10^8 cells/nil) in the presence or absence of 200 μg/ml of antibacterial peptides. After 2-3 days incubation the injection sites were scored for infection on a scale of 0-100% relative to the no-bacteria (0% infection) and bacteria-only controls (PAO1) (100%). Data are from six independent experiments and are shown as mean±SEM, N=4−12. *) P<0.04, **) P<0.003.
Romaine lettuce heads were purchased from local grocery stores. Outer leaves were removed and undamaged leaves were selected. The leaves were rinsed in 0.1% bleach and incubated in plastic containers on filter paper moistened with 10 mM MgSO4. Overnight cultures of P. aeruginosa were diluted to 10^8 CFU/ml in 10 mM MgSO4 and supplemented with 200 μg/ml of each peptide. Ten μl (10^6 CFU, 2 μg peptide) were injected into the midrib of each leaf using a micro pipetter. Blank controls were incubated with buffer only, and bacterial controls were incubated without peptide. The plastic trays were covered and incubated at 35° C. Leaves were inspected daily for browning around the injection site or along the midrib. Generally rotting or moldy leaves were discarded. Infection was scored on a scale from 0% to 100% relative to blank controls and bacterial controls, respectively.

P. aeruginosa PAO1 [5] = experiment: MIC determination, broth dilution assay (growth OD 570 nm, pelleting in wells); type: cell-based, Pseudomonas aeruginosa
Protocol: as §2
FIG. 6A-6C: GL13 causes bacterial cell spreading. Microtiter plates used to determine bacteriostatic activity (FIG. 5) were photographed after overnight incubation with serial dilutions of the indicated peptides. The diameter of the P. aeruginosa pellets in the presence of GL13 was determined and expressed relative to the peptide concentration in each well. A. Graph of the results. B and C are representative depictions of P. aeruginosa and A. actinomycetemcomitans, respectively, spreading in the presence of PSP peptides.
The minimal inhibitory concentration (MIC) of PSP peptides was tested using the broth dilution assay. […] Bacterial growth was quantitated by the optical density (OD) at 570 nm. […]

[6] = Affinity binding of PSP to LPS-Sepharose / immobilized LPS
Description: PLUNC binds LPS, as expected from its structural similarity to LPS-Binding Protein (LBP). To determine if PSP also binds LPS, the protein was expressed in GH4C1 cells and the secretion medium was used for affinity chromatography on LPS-Sepharose. After binding, the affinity matrix was washed and then eluted with PBS+0.2 g/1 EDTA. […] The results of this experiment establish that PSP is an LPS-binding protein and provides a method for purification of PSP.
Secretion medium from GH4C1 cells was loaded on LPS-Sepharose and the unbound fraction collected (this sample was divided on two lanes for PSP-WT). The column was washed and then eluted with PBS+EDTA. The eluted beads were boiled in SDS-sample buffer to release any remaining proteins.

Molecule: CC[C@H](C)[C@H](NC(=O)[C@H](CCCCN)NC(=O)[C@H](CCC(=O)O)NC(=O)[C@H](CCCCN)NC(=O)[C@H](CO)NC(=O)[C@H](CCCCN)NC(=O)[C@H](CCCNC(=N)N)NC(=O)[C@H](Cc1ccccc1)NC(=O)[C@H](Cc1ccccc1)NC(=O)[C@H](CC(=O)O)NC(=O)CNC(=O)[C@H](CC(C)C)NC(=O)[C@@H](N)CC(C)C)C(=O)NCC(=O)N[C@@H](CCCCN)C(=O)N[C@@H](CCC(=O)O)C(=O)N[C@@H](Cc1ccccc1)C(=O)N[C@@H](CCCCN)C(=O)N[C@@H](CCCNC(=N)N)C(=O)N[C@H](C(=O)N[C@H](C(=O)N[C@@H](CCC(N)=O)C(=O)N[C@@H](CCCNC(=N)N)C(=O)N[C@H](C(=O)N[C@@H](CCCCN)C(=O)N[C@@H](CC(=O)O)C(=O)N[C@@H](Cc1ccccc1)C(=O)N[C@@H](CC(C)C)C(=O)N[C@@H](CCCNC(=N)N)C(=O)N[C@@H](CC(N)=O)C(=O)N[C@@H](CC(C)C)C(=O)N[C@H](C(=O)N1CCC[C@H]1C(=O)N[C@@H](CCCNC(=N)N)C(=O)N[C@H](C(=O)N[C@@H](CCC(=O)O)C(=O)N[C@@H](CO)C(=O)O)[C@@H](C)O)C(C)C)[C@@H](C)CC)C(C)C)[C@@H](C)CC [LL37, reference compound]
- hemagglutination (words) (sheep red blood cells): did not cause hemagglutination
- killing of A. actinomycetemcomitans [1]: 100%

Molecule: GQIINLKASLDLL [GL13-OH, GQIINLKASLDLL]
- hemagglutination (words) (sheep red blood cells): caused hemagglutination

Molecule: GQIINLKASLNLL-NH2 [GL13-D/N-NH2, GQIINLKASLNLL-(CONH2)]
- hemagglutination (words) (sheep red blood cells): caused hemagglutination

Molecule: KAQEAEKLLNN [KN11]
- Inhibition (Mean ± SEM) of LPS binding to LBP [2]: 36% ± 13

Molecule: KLLNNVISK [KK9]
- Inhibition (Mean ± SEM) of LPS binding to LBP [2]: 34% ± 12

Molecule: Substance P: antibacterial cationic peptide substance P
- effect on LPS binding to LBP [2]: had no effect on LPS binding to LBP
- Inhibition (Mean ± SEM) of LPS binding to LBP [2]: −18% ± 19

Molecule: lysozyme: Lysozyme (egg white) from Fisher Scientific, established antimicrobial protein [reference compound]
- bacterial growth in biofilm/adhesion assay (P. aeruginosa PAO1 [3]): affected neither growth nor biofilm formation; also recorded: affected neither growth nor adhesion
- biofilm formation / adhesion (P. aeruginosa PAO1 [3]): affected neither growth nor biofilm formation; also recorded: affected neither growth nor adhesion
- growth inhibition of A. actinomycetemcomitans [4]: did not inhibit growth of A. actinomycetemcomitans
- infection of lettuce leaves (P. aeruginosa): significantly reduced the infection
- reduction of growth of P. aeruginosa (P. aeruginosa PAO1 [5]; broth dilution assay): about 50%
- MIC (P. aeruginosa PAO1 [5]; two-fold serial dilutions starting at 84 μg/ml): did not exhibit a defined MIC

B1: PSP: human Parotid Secretory Protein (SPLUNC2, C20ORF70), SEQ ID NO:6 (protein, listed as Homo sapiens)
chain: MLQLWKLVLLCGVLTGTSESLLDNLGNDLSNVVDKLEPVLHEGLETVDNTLKGILEKLKVDLGVLQKSSAWQLAKQKAQEAEKLLNNVISKLLPTNTDIFGLKISNSLILDVKAEPIDDGKGLNLSFPVTANVTVAGPIIGQIINLKASLDLLTAVTIETDPQTHQPVAVLGECASDPTSISLSLLDKHSQIINKFVNSVINTLKSTVSSLLQKEICPLIRIFIHSLDVNVIQQVVDNPQHKTQLQTLI
- binding of PSP to LPS [6]: quantitatively retained by the LPS affinity matrix; also recorded: bound to immobilized P. aeruginosa LPS
